Like-named read-outs stand apart in the source and are kept apart here.
Columns and labels:
CRM1 = CRM1 (Homo sapiens, UniProt O14980); assay: Competition differential bleaching assay monitored by microscale thermophoresis instrument (MBP-NES vs FITC-PKI^NES); type: binding; settings: brackets = 68.3% confidence interval
From the text: To first investigate whether features of the sequence such as spacings between hydrophobic residues and placement of the ΦXΦ motif are critical in determining directionality of NES binding, we reversed the sequence of the hRio2^NES ([…]) to generate hRio2^NES-R ([…]). We also reversed CPEB4^NES ([…]) to generate CPEB4^NES-R ([…]). Both reversed peptides match the class 1a NES pattern and were predicted to bind CRM1 like the PKI^NES, which is another class 1a NES. Binding affinities of NES peptides to CRM1 were measured in competition differential bleaching experiments using FITC-PKI^NES as a fluorescent probe, MBP-NESs as competitors and monitored with a microscale thermophoresis instrument (Figure 4, Figure 4—figure supplement 1). Wild-type NESs MBP-hRio2^NES and MBP-CPEB4^NES bind CRM1 with KDs of 2200 nM [1600,2900] and 590 nM [400,840], respectively (Figure 4B). The ranges in brackets represent the 68.3% confidence intervals as calculated using F-statistics and error-surface projection method ([Bevington and Robinson, 1992]). […] All of the NES peptides were also cloned into EYFP-NLS-NES fusions and tested for nuclear export activity in HeLa cells.
Differential bleaching was used as a parameter to monitor binding of MBP-NES proteins to CRM1. In short, we observed that the fluorophore reporter attached to PKI^NES (FITC) underwent a reproducible time-dependent bleaching when exposed to excitation light (Figure 4—figure supplement 2). Furthermore, this phenomenon was concentration-dependent, that is, the bleaching was accelerated when the FITC-PKI^NES probe was exposed to increasing concentrations of CRM1. […] The differential bleaching can be counteracted by titrating of mixture of FITC-PKI^NES and CRM1 with a known competitor, MBP-PKI^NES, which competes directly with the fluorescent probe for the NES binding groove in CRM1. A sigmoidal appearance of the binding and competition isotherms is observed when differential bleaching, quantified as the average fluorescence at a time after bleaching normalized by the averaged fluorescence just after the beginning of bleaching, is plotted vs titrant concentration in a semilog graph (see Figure 4).This illustrates that this bleaching behavior can be described as a two-state system where unbound probe and CRM1-bound probe bleach at different but specific rates, and that these quantities report on the populations of bound and unbound FITC-PKI^NES. A detailed description of the data-fitting procedures will be described in manuscript in preparation by C.A.B. For error reporting, we used F-statistics and error-surface projection method to calculate the 68.3% confidence intervals of the fitted data ([Bevington and Robinson, 1992]). While error reporting using the error surface projection method is relatively uncommon, the ranges more accurately represent the true confidence intervals given the observed noise in the performed set of experiments because they explicitly account for the ability of the fitting algorithm to compensate for fitting defects by modifying correlated parameters. Thus, they provide better evaluation of the fitted data than other, more commonly used methods (e.g., error estimations from the parametric variance-covariance matrix).
All proteins used were subjected to an extra gel filtration step and dialysis overnight in TB buffer with 15% glycerol to remove possible aggregation and ensures buffer matching. The FITC-PKI^NES peptide (FITC-[…]) was chemically synthesized by GenScript, NJ and dissolved in the TB buffer with 15% glycerol. For the direct titration, ^HsCRM1 was serially diluted from 40 μM to 1.2 nM and incubated with mixture of 120 μM ^ScRan-GTP and 40 nM FITC-PKI^NES in 1:1 vol to a total volume of 20 μl, and incubated for 1 hr in the dark at room temperature. […]

human CRM1 = assay: In vitro CRM1-NES pull-down binding assay (immobilized GST-NES); settings: immobilized GST-PKI^NES mutants, purified CRM1 and RanGTP; 2.5 μM HsCRM1, 7.5 μM ScRanGTP, 30 min 4°C; Coomassie-stained SDS/PAGE
Method: After affinity purification, ^ScRan was loaded with GTP (incubated with molar excess of ethylenediaminetetraacetic acid (EDTA) for 30 min on ice followed by incubation with excess GTP and MgOAC for 30 min at room temperature) and then purified by ion exchange chromatography (HiTrap SP, GE Healthcare Life Sciences). NESs were cloned into the pGEX-TEV vector ([Chook and Blobel, 1999]), purified, and immobilized on glutathione Sepharose beads (GE Healthcare Life Sciences) in TB buffer described above containing 15% glycerol. 2.5 μM ^HsCRM1 and 7.5 μM ^ScRanGTP were added to ∼10 μg of immobilized GST-NESs in TB buffer in total volumes of 200 μl for 30 min at 4°C. Unbound proteins were washed extensively with TB buffer and bound proteins on the Sepharose beads were separated by sodium dodecyl sulfate polyacrylamide gel electrophoresis (SDS/PAGE) and visualized with Coomassie Blue staining. All binding assays were performed in triplicates. To compare the relative intensities of CRM1 bands to yield an estimate of binding activities of various NES mutants, SDS/PAGE gels were dried and scanned with an Epson V300 scanner and the images analyzed with ImageJ software. CRM1 band intensities were corrected for differences in GST-NESs band intensities and normalized to wild-type control intensity in each set of mutations. Corrected relative CRM1 band intensities were plotted as histograms with standard errors with GraphPad Prism.
To test putative minus NESs identified from the Dbase data set, 5 μM ^HsCRM1 with or without 15 μM ^ScRanGTP were used instead. Putative NESs that show no CRM1 binding were expressed in larger scale and purified by size-exclusion chromatography to assess their aggregation states. They were also subjected to intact mass determination by mass spectroscopy to ensure that the GST-NES proteins were not degraded.

[1] = Figure 4—figure supplement 1, shorter hRio2^NES (without C-terminal lysine and glycine) and CPEB4^NES (without C-terminal methionine and arginine) constructs, competition differential bleaching as E1, read-out: KD of shorter NES constructs binding to CRM1
[2] = competition titration, MBP-NES 100 μM to 3 nM, 40 nM FITC-PKI^NES probe, 300 nM HsCRM1, 120 μM ScRan-GTP, mixed 1:1, TB buffer 15% glycerol, 0.05% Tween-20, 1.5 hr room temperature, triplicate titrations, read-out: KD (dissociation constant of NES binding to CRM1)

Chain of CRM1 (O14980 whole entry, other chains not shown): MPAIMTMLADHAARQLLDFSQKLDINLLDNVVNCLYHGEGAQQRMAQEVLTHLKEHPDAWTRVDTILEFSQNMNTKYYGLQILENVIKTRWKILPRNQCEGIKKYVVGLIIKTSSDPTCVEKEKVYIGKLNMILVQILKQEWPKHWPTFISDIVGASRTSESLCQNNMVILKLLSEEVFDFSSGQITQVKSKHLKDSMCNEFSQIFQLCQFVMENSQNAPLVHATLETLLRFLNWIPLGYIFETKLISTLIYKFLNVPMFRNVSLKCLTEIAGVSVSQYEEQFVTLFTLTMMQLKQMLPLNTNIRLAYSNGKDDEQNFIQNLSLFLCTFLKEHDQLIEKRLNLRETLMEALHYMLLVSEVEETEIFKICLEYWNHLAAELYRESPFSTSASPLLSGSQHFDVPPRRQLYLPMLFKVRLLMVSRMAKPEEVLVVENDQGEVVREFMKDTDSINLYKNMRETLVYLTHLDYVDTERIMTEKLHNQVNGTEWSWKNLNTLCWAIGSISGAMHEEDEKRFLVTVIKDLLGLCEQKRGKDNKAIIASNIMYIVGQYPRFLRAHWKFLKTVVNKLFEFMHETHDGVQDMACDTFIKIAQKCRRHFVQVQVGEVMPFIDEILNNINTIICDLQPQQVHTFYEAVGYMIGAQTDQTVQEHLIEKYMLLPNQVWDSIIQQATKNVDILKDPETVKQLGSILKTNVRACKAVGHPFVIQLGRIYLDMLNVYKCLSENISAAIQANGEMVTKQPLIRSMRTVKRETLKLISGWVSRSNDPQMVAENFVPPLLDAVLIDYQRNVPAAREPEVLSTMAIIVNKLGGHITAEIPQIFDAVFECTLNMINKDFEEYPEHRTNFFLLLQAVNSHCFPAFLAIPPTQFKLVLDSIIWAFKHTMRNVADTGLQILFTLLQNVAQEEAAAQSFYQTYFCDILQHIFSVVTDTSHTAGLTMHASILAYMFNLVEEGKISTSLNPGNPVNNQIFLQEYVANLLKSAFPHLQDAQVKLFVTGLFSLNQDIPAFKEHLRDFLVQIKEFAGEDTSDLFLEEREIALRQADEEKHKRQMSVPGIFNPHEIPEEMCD

GGSY^379RTFDMHSLESSLIDI^393 [CPEB4^NES, nuclear export signal of CPEB4 (residues 379-393), tested as MBP- or GST-fusion]
Kd (CRM1; [1]): 1600 nM | Kd (CRM1; [2]): 590 nM

IDLNELALKLAGL [PKI^NES-Flip1, PKI^NES with inverted LDI at the N-terminus, GST-fusion]
CRM1 binding in pull-down assay (human CRM1): does not interact with CRM1

GGSYRSFDMNELALKLAGLD [PKI^NES-Flip3, PKI^NES-Flip mutant with N-terminal FDM, GST-fusion]
CRM1 binding in pull-down assay (human CRM1): graded increases in CRM1 binding

GGSY^389RSFEMTEFNQALEEI^403 [hRio2^NES, nuclear export signal of hRio2 (residues 389-403), tested as MBP- or GST-fusion]
Kd (CRM1; [1]): 1400 nM | Kd (CRM1; [2]): 2200 nM

GGSYGKIEELAQNFETMEFSR [hRio2^NES-R]
Kd (CRM1; [2]): 2400 nM

GGSYRMIDILSSELSHMDFTR [CPEB4^NES-R]
Kd (CRM1; [2]): 780 nM

FDLNELALKLAGL [PKI^NES-Flip2, PKI^NES-Flip mutant with N-terminal FDL, GST-fusion]
CRM1 binding in pull-down assay (human CRM1): graded increases in CRM1 binding
